The record followed here is patent publication US9718828B2 (MERCK SHARP & DOHME CORP., priority 2011, dated 2017).

Structures can show the parent of a compound that is named as a salt. Where only a bound is given, the exact number is not on record here.

In one assay the target is Btk enzyme (His-Btk) (Homo sapiens (Human), UniProt Q06187). Nature of the assay: Btk enzyme activity, IMAP fluorescence polarization assay (Assay Method A).
Chain of Btk enzyme (His-Btk) (Q06187 whole entry): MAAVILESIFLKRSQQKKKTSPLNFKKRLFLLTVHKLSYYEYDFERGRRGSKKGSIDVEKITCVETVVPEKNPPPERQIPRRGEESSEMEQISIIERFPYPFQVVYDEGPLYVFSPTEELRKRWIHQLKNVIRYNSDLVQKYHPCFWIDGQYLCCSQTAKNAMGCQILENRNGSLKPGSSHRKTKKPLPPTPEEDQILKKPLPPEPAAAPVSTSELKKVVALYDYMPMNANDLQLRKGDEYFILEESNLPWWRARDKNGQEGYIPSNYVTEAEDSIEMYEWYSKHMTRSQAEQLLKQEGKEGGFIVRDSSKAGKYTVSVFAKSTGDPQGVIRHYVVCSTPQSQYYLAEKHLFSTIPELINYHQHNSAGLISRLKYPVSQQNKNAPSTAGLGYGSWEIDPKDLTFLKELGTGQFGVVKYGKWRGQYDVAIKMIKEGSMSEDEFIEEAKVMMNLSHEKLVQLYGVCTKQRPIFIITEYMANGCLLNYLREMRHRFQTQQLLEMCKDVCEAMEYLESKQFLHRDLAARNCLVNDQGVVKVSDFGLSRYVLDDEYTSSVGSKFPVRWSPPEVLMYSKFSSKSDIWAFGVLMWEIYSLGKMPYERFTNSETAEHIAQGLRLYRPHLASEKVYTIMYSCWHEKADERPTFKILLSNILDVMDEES
Details: not given
Molecule `Cc1nc(-c2ccc(C(=O)Nc3cc(C(F)(F)F)ccn3)cc2)c2c(N)ncc(C(=O)NCc3cnco3)n12` [Example 297, 8-amino-3-methyl-N-(oxazol-5-ylmethyl)-1-(4-(4-(trifluoromethyl)pyridin-2-ylcarbamoyl)phenyl)imidazo[1,5-a]pyrazine-5-carboxamide] registered an EC50 of 100 to 1000 nM. With `CC1(C(=O)N2CCC[C@@H](c3nc(-c4ccc(C(=O)Nc5cc(C(F)(F)F)ccn5)cc4)c4c(N)ncc(C5=CCOCC5)n34)C2)COC1` [Example 322, (R)-4-(8-amino-5-(3,6-dihydro-2H-pyran-4-yl)-3-(1-(3-methyloxetane-3-carbonyl)piperidin-3-yl)imidazo[1,5-a]pyrazin-1-yl)-N-(4-(trifluoromethyl)pyridin-2-yl)benzamide], the EC50 is 10 to 100 nM. On the same count and under the same terms, then `COCCC(=O)N1CC[C@@H](c2nc(-c3ccc(C(=O)Nc4ccccn4)cc3)c3c(N)nccn23)C1` [Example 125, (R)-4-(8-amino-3-(1-(3-methoxypropanoyl)pyrrolidin-3-yl)imidazo[1,5-a]pyrazin-1-yl)-N-(pyridin-2-yl)benzamide, TFA salt], with 100 to 1000 nM.

On to `CCC(=O)N1CCC[C@@H](c2nc(-c3ccc(C(=O)Nc4cc(C#N)ccn4)cc3)c3c(N)nccn23)C1` [Example 96, (R)-4-(8-amino-3-(1-propionylpiperidin-3-yl)imidazo[1,5-a]pyrazin-1-yl)-N-(4-cyanopyridin-2-yl)benzamide], for which the EC50 is less than 10 nM. On to `CCNC(=O)N1CCC[C@@H](c2nc(-c3ccc(C(=O)Nc4cc(C5CC5)ccn4)cc3)c3c(N)nccn23)C1` [Example 63, (R)-3-(8-amino-1-(4-(4-cyclopropylpyridin-2-ylcarbamoyl)phenyl)imidazo [1,5-a]pyrazin-3-yl)-N-ethylpiperidine-1-carboxamide], for which the EC50 is less than 10 nM. The molecule `CC(C)C(=O)N1CC[C@@H](c2nc(-c3ccc(C(=O)Nc4ccccn4)cc3)c3c(N)nccn23)C1` [Example 127, (R)-4-(8-amino-3-(1-isobutyrylpyrrolidin-3-yl)imidazo[1,5-a]pyrazin-1-yl)-N-(pyridin-2-yl)benzamide, TFA salt] returned an EC50 of 100 to 1000 nM. As for `Nc1ncnc2c1c(-c1ccc(C(=O)Nc3cc(C(F)(F)F)ccn3)cc1)nn2[C@@H]1CCCN(C(=O)C(F)(F)F)C1` [Example 274, (R)-4-(4-amino-1-(1-(2,2,2-trifluoroacetyl)piperidin-3-yl)-1H-pyrazolo[3,4-d]pyrimidin-3-yl)-N-(4-(trifluoromethyl)pyridin-2-yl)benzamide], the EC50 was 10 to 100 nM. The molecule `COCCC(=O)N1CCC2(CC1)CC2c1nc(-c2ccc(C(=O)Nc3ccccn3)cc2)c2c(N)nccn12` (stereo not drawn) [Example 151, 4-(8-amino-3-(6-(3-methoxypropanoyl)-6-azaspiro[2.5]octan-1-yl)imidazo[1,5-a]pyrazin-1-yl)-N-(pyridin-2-yl)benzamide] returned an EC50 of 100 to 1000 nM. The same measure, in the same setting: then `CCOC(=O)N1C[C@H](c2nc(-c3ccc(C(=O)Nc4cc(C(F)(F)F)ccn4)cc3)c3c(N)nccn23)CC[C@H]1C` (relative stereo) [Example 182, (trans)-ethyl 5-(8-amino-1-(4-(4-(trifluoromethyl)pyridin-2-ylcarbamoyl)phenyl)imidazo [1,5-a]pyrazin-3-yl)-2-methylpiperidine-1-carboxylate, TFA salt], with less than 10 nM; and `Nc1nccn2c([C@@H]3CCCN(CC4CCOC4)C3)nc(-c3ccc(C(=O)Nc4cc(C5CC5)ccn4)cc3)c12` (stereo partly drawn) [Example 145, 4-(8-amino-3-((3R)-1-((tetrahydrofuran-3-yl)methyl)piperidin-3-yl)imidazo[1,5-a]pyrazin-1-yl)-N-(4-cyclopropylpyridin-2-yl)benzamide, TFA salt], with 10 to 100 nM; and `CCc1cnc(NC(=O)c2ccc(-c3nc([C@H]4CC[C@H](OC(C)=O)CC4)n4ccnc(N)c34)cc2)s1` [Example 38, (trans)-4-(8-amino-1-(4-(5-ethylthiazol-2-ylcarbamoyl)phenyl)imidazo [1,5-a]pyrazin-3-yl)cyclohexyl acetate], with 10 to 100 nM.

The assay is the same for the next values; noted with them: read-out: EC50 Btk activity values - Assay Method A; IMAP-FP, 60 min pre-incubation, 5 μM ATP; class 100-1000 is given as ≧100 nM-<1 μM.
On to `Nc1ncnc2c1c(-c1ccc(C(=O)Nc3cc(C(F)(F)F)ccn3)cc1)nn2[C@@H]1CCCN(C(=O)C2CC(F)(F)C2)C1` [Example 278, (R)-4-(4-amino-1-(1-(3,3-difluorocyclobutanecarbonyl)piperidin-3-yl)-1H-pyrazolo[3,4-d]pyrimidin-3-yl)-N-(4-(trifluoromethyl)pyridin-2-yl)benzamide], for which the EC50 was less than 10 nM.

As for `COCCC(=O)N1CCC[C@@H](c2nc(-c3ccc(C(=O)Nc4ccccn4)cc3F)c3c(N)nccn23)C1` [Example 284, 4-(8-amino-3-((R)-1-(3-methoxypropanoyl)piperidin-3-yl)imidazo[1,5-a]pyrazin-1-yl)-3-fluoro-N-(pyridin-2-yl)benzamide, TFA salt], the EC50 was less than 10 nM. `CCNC(=O)N1CCOC(c2nc(-c3ccc(C(=O)Nc4cc(C(F)(F)F)ccn4)cc3)c3c(N)nccn23)C1` (stereo not drawn) [Example 178, 2-(8-amino-1-(4-(4-(trifluoromethyl)pyridin-2-ylcarbamoyl)phenyl)imidazo [1,5-a]pyrazin-3-yl)-N-ethylmorpholine-4-carboxamide]: the EC50 is less than 10 nM.

Consider `CCNC(=O)N1CCC[C@@H](c2nc(-c3ccc(C(=O)Nc4cc(C#N)ccn4)cc3)c3c(N)nccn23)C1` [Example 101, (R)-3-(8-amino-1-(4-(4-cyanopyridin-2-ylcarbamoyl)phenyl)imidazo [1,5-a]pyrazin-3-yl)-N-ethylpiperidine-1-carboxamide], for which the EC50 is less than 10 nM. On to `Nc1nccn2c(C3CCCC3)nc(-c3ccc(C(=O)Nc4ccccn4)cc3)c12` [Example 45, 4-(8-amino-3-cyclopentylimidazo[1,5-a]pyrazin-1-yl)-N-(pyridin-2-yl)benzamide, TFA salt], for which the EC50 is less than 10 nM. The same measure, in the same setting: next, `C[C@H]1CC[C@@H](c2nc(-c3ccc(C(=O)Nc4ccccn4)cc3)c3c(N)nccn23)CN1C(=O)CC1CC1` (relative stereo) [Example 191, 4-(8-amino-3-((cis)-1-(2-cyclopropylacetyl)-6-methylpiperidin-3-yl)imidazo[1,5-a]pyrazin-1-yl)-N-(pyridin-2-yl)benzamide, TFA salt]: less than 10 nM; `Nc1nccn2c(C3CN(C(=O)C4CC4)CCO3)nc(-c3ccc(C(=O)Nc4cc(C(F)(F)F)ccn4)cc3)c12` (stereo not drawn) [Example 176, 4-(8-amino-3-(4-(cyclopropanecarbonyl)morpholin-2-yl)imidazo[1,5-a]pyrazin-1-yl)-N-(4-(trifluoromethyl)pyridin-2-yl)benzamide]: less than 10 nM. Same read-out and setting: next, `CCCc1ccnc(NC(=O)c2ccc(-c3nc(N(CC)CC)n4ccnc(N)c34)cc2)c1` [Example 214, 4-(8-amino-3-(diethylamino)imidazo[1,5-a]pyrazin-1-yl)-N-(4-propylpyridin-2-yl)benzamide]: less than 10 nM. Take `Nc1nccn2c(N3CCCC(C(=O)N[C@H]4CCOC4)C3)nc(-c3ccc(C(=O)Nc4cc(C(F)(F)F)ccn4)cc3)c12` (stereo partly drawn) [Example 237, 1-(8-amino-1-(4-(4-(trifluoromethyl)pyridin-2-ylcarbamoyl)phenyl)imidazo[1,5-a]pyrazin-3-yl)-N-((S)-tetrahydrofuran-3-yl)piperidine-3-carboxamide, TFA salt]: the EC50 was less than 10 nM.

Turning to `CC(C)C(=O)N1CCC[C@@H](c2nc(-c3ccc(C(=O)Nc4cc(C(F)(F)F)ccn4)cc3)c3c(N)nccn23)C1` [Example 104, (R)-4-(8-amino-3-(1-isobutyrylpiperidin-3-yl)imidazo[1,5-a]pyrazin-1-yl)-N-(4-(trifluoromethyl)pyridin-2-yl)benzamide], the EC50 was less than 10 nM. Consider `Nc1ncnc2c1c(-c1ccc(C(=O)Nc3cc(C(F)(F)F)ccn3)cc1)nn2[C@@H]1CCCN(C(=O)C2CCC2)C1` [Example 277, (R)-4-(4-amino-1-(1-(cyclobutanecarbonyl)piperidin-3-yl)-1H-pyrazolo[3,4-d]pyrimidin-3-yl)-N-(4-(trifluoromethyl)pyridin-2-yl)benzamide], for which the EC50 was less than 10 nM. Still for that read-out and setting: next, `CC1(C(=O)N[C@H]2CCCN(c3nc(-c4ccc(C(=O)Nc5cc(C(F)(F)F)ccn5)cc4)c4c(N)nccn34)C2)COC1` [Example 218, (S)-N-(1-(8-amino-1-(4-(4-(trifluoromethyl)pyridin-2-ylcarbamoyl)phenyl)imidazo [1,5-a]pyrazin-3-yl)piperidin-3-yl)-3-methyloxetane-3-carboxamide]: less than 10 nM; `Nc1nccn2c(N3CCCC(C(=O)N4CCCC(F)(F)C4)C3)nc(-c3ccc(C(=O)Nc4cc(C(F)(F)F)ccn4)cc3)c12` (stereo not drawn) [Example 243, 4-(8-amino-3-(3-(3,3-difluoropiperidine-1-carbonyl)piperidin-1-yl)imidazo[1,5-a]pyrazin-1-yl)-N-(4-(trifluoromethyl)pyridin-2-yl)benzamide, TFA salt]: less than 10 nM.

`Nc1nccn2c(N3CCOCC3)nc(-c3ccc(C(=O)Nc4cc(C(F)(F)F)ccn4)cc3)c12` [Example 211, 4-(8-amino-3-morpholinoimidazo[1,5-a]pyrazin-1-yl)-N-(4-(trifluoromethyl)pyridin-2-yl)benzamide]: the EC50 is less than 10 nM. The same measure, in the same setting: then `N#Cc1csc(C(=O)N2CCC[C@@H](c3nc(-c4ccc(C(=O)Nc5cc(C6CC6)ccn5)cc4)c4c(N)nccn34)C2)c1` [Example 118, (R)-4-(8-amino-3-(1-(4-cyanothiophene-2-carbonyl)piperidin-3 yl)imidazo[1,5-a]pyrazin-1-yl)-N-(4-cyclopropylpyridin-2-yl)benzamide], with less than 10 nM; and `C[C@H]1CC[C@@H](c2nc(-c3ccc(C(=O)Nc4cc(C5CC5)ccn4)cc3)c3c(N)nccn23)CN1C(=O)C1CCC1` (relative stereo) [Example 197, 4-(8-amino-3-((cis)-1-(cyclobutanecarbonyl)-6-methylpiperidin-3-yl)imidazo[1,5-a]pyrazin-1-yl)-N-(4-cyclopropylpyridin-2-yl)benzamide, TFA salt], with less than 10 nM.
